Data as given in US5942494A, “Stimulation of gene expression and synthesis of heat shock protein 72/73 (HSP 70)” (The Trustees of Columbia University in the City of New York, priority 1996, dated 1999).
Square brackets hold non-standard residues; d marks the D form. Peptide text beside a SMILES is read from it. Nle = CCCC[C@H](N)C(=O)O

Tests used:
[1] = tested on: 3-hydroxy-3-methylglutaryl-coenzyme A (HMG-CoA) reductase; conditions: Inoue, et al., 1991; cited from earlier work
Hsp27 = experiment: Immunoprecipitation of Hsp27 from radiolabeled HepG2 cells; type: cell-based, human; conditions: HepG2, ALLN 4 hours
Procedure: (§1) FIGS. 7A-7B: Effects of ALLN on the biosynthesis of other members of Hsp family and related proteins. HepG2 cells were pre-treated and radiolabeled with or without ALLN for 4 hours as described in FIG. 1. Cell lysates were used for SDS-PAGE (A), or for immunoprecipitation with anti-Hsp25, -Hsp27, -Hsp60, -Hsp70, -Hsp86, -Hsp90, -Hsp104, -Bip, or -albumin antibodies respectively (1 μg/ml) (B). Because the anti-Hsp25, -Hsp27, -Hsp60 and Hsp90 antibodies are from a rat source, rabbit anti-rat IgG antibody was added after the first incubation, and the incubation was extended for another 1 hour at 4° C. before collection with protein A-Sepharose.Immunoprecipitates were loaded for SDS-PAGE and aliquoted for scintillation counting and plotting. Each value was presented as mean ±S.D. from three individual culture dishes.
(§2) HepG2 cells were preincubated for 4 hours in serum-free MEM and then radiolabeled with ^3 H-Leucine (150 μCi/ml) in a serum-free, leucine-free medium. […] Cell lysates containing equal amounts of trichloroacetic acid (TCA)-insoluble radioactivity were used for immunoprecipitations by incubating with individual monoclonal antibody (1 μg/ml) for 2.5 hours at 4° C. […]

Hsp25 = experiment: Immunoprecipitation of Hsp25 from radiolabeled HepG2 cells; type: cell-based, human; conditions: HepG2, ALLN 4 hours
Procedure: as §1, §2

Hsp86 = experiment: Immunoprecipitation of Hsp86 from radiolabeled HepG2 cells; type: cell-based, human; conditions: HepG2, ALLN 4 hours
Procedure: as §1, §2

proteasomes = conditions: Rock, et al., 1994; cited from earlier work
hsp70 (hsp72) mRNA = experiment: Northern blot of hsp70 (hsp72) mRNA in HepG2 cells; type: cell-based, human
Procedure: HepG2 cells were treated with serum-free MEM containing either 1.5% BSA alone (Control, lane1), BSA plus 40 μg/ml of ALLN (ALLN, lane2), ALLN and 10 μg/ml of actinomycin D (A+AD, lane3), or ALLN and 50 μg/ml of cycloheximide (A+CXM, lane4). After 4 hours treatment at 37° C., cells were harvested. (B). HepG2 cells were treated with 40 μg/ml of ALLN in the serum-free MEM for up to 0 hour (lane1), 1 hour (lane2), 2 hours (lane3), and 3 hours (lane4) and then harvested without recovery. Or after treatment for 3 hours in the presence of ALLN as above, the ALLN containing medium were removed, cells were washed and fed fresh medium containing only BSA for recovery of up to 1 hour (lane5), 3 hours (lane6), 5 hours (lane7) or 7 hours (lane8). The total RNA was prepared, and equal amounts of the samples were loaded and run on a 1% formaldehyde-agarose gel, blotted onto a nylon membrane, and subsequently hybridized with specific synthetic oligonucleotide probes for hsp70 mRNA as described under Experimental Details. The position of 28S and 18S rRNA are shown for reference.
Total RNA was prepared using the procedure of Chomczynski and Sacchi (Chomczynski, et al., 1987) and a commercially prepared reagent, TRISOLV™ (Biotecx Laboratories Inc., Tex.) . Equal amounts of tRNA samples (10 μg) were size-fractionated on a 1% agarose-formaldehyde gel according to the methods described (Maniatis, et al., 1982) and transferred to a piece of QIAGEN plus nylon membrane. To determine loading and transfer efficiency, RNA was stained with ethidium bromide before and after transfer. The membrane was baked for 30 min. at 80° C. in vacuo (a vacuum) followed by UV cross-linking. It was then incubated for 4 hours at 65° C. in a prehybridization mixture containing 10% dextran sulfate, 1% SDS, 1M sodium chloride, 50 mM Tris-HCl (pH 7.5) and 100 μg/ml denatured salmon sperm DNA. Hybridization was carried out for 18 hours at 65° C. in the same buffer with a ^32 P-labeled (1×10^6 cpm/ml) 40-mer oligonucleotide probe to the untranslated 5' region of a human hsp70 gene (Oncogene Science). […] The membrane was then washed four times with 2×SSC, 0.1% SDS at room temperature, one time at 65° C. for 30 min., and one time at room temperature again for 5 min., and finally rinsed with 2×SSC at room temperature. This membrane was air dried and exposed to X-ray film at -80° C. for 48 hours.
Total RNA was isolated from HepG2 cells which had been incubated for 4 hours at 37° C. (FIG. 5A) with MEM containing BSA alone (Control, lane1), BSA plus 40 μg/ml of ALLN (ALLN, lane2), BSA plus ALLN and […] of actinomycin D (A+AD, lane3) or BSA plus ALLN and 50 μg/ml of cycloheximide (A+CXM, lane4). A radioprobe containing a unique sequence specific for the 5' untranslated region of hsp72 (inducible form) (Freeman et al., 1993) was used for Northern blot analysis.

CCCC[C@@H](C=O)NC(=O)[C@H](CC(C)C)NC(=O)[C@H](CC(C)C)NC(C)=O [ALLN, N-acetyl-leucyl-leucyl-norleucinal] (Ac-Leu-Leu-[Nle]-aldehyde)
Protection of HMG-CoA reductase [1]: protected | Effect on Hsp27 (Hsp27): no effects | Effect on Hsp25 (Hsp25): no effects | Effect on Hsp86 (Hsp86): no effects | Inhibition of proteasomes (proteasomes): potent inhibitors | hsp70 (hsp72) mRNA after recovery (hsp70 (hsp72) mRNA; 3 hours ALLN 40 μg/ml, then 7 hours of recovery in ALLN-free medium): declined to background levels | Time of ALLN treatment to significant elevation of hsp70 (hsp72) mRNA (hsp70 (hsp72) mRNA; ALLN 40 μg/ml): ≤ 60 min | Amount of hsp70 (hsp72) mRNA (hsp70 (hsp72) mRNA; ALLN 40 μg/ml, 4 hours at 37° C.): increased dramatically
